Measured values: article PMC8765435, “In Vitro Antimalarial Activity of Inhibitors of the Human GTPase Rac1” (Antimicrobial Agents and Chemotherapy, 2022)

Key:
[1] = tested on: 3D7 immature gametocytes; assay: Gametocyte viability luminescence assay, immature gametocytes; assay type: cell-based, Plasmodium falciparum; conditions: Plasmodium falciparum, 3D7, stage II-III gametocytes, 72 h, read-out: Mean IC50 ± SD, 3D7 immature gametocytes
Procedure: Chloroquine (CQ)-sensitive (D10, wild-type 3D7, or transgenic 3D7elo1-pfs16-CBG99) and CQ-resistant (W2) strains of P. falciparum were cultured as described previously ([58]), with slight modifications, as detailed in the supplemental material.
Asexual parasite growth was determined spectrophotometrically (optical density at 650 nm [OD650]) by measuring the activity of parasite lactate dehydrogenase (pLDH), according to a modified version of the method of Makler et al. ([59]). Gametocyte viability was measured by a luminescence method described previously ([60]). Details for the two methods are reported in the supplemental material. From either the OD or ALU (arbitrary luminescence units), the percentages of viability were calculated according to the formula 100 × (treated sample signal − blank signal)/(untreated control signal − blank signal). The blank for the pLDH assay was uninfected RBCs at the same hematocrit as that of parasitized RBCs, and the blank for the luminescence assay was parasites treated with a high dose of methylene blue. […]
strain (wild type or transgenic 3D7elo1-pfs16-CBG99 strain) was cultured in similar conditions, except for 10% naturally clotted Human O+ serum instead of AlbuMaxII and human type O-positive instead of A-positive RBCs. […]
in a standard gas mixture consisting of 1% O2, 5% CO2, 94% N2. Immature (stage II-III) and mature (stage V) gametocytes were obtained as described1. Briefly, cultures were diluted to 0.5% parasitemia at 5% HCT, and the medium was changed daily until parasites were stressed by nutrient deprivation. N-acetylglucosamine (NAG) (Sigma-Aldrich) 50 mM was then added to clear residual asexual parasites: Stage II and III gametocytes were obtained 4 days after NAG addition to the culture, while stage IV and V gametocytes were used 11 to 13 days from NAG addition. Gametocyte stages were routinely checked on Giemsa-stained smears. […]
Drug treated gametocyte cultures were transferred to 96-well black microplates and D-luciferin (1 mM in citrate buffer 0.1 M, pH 5.5) was added at a 1:1 volume ratio. Luminescence measurements were performed after 10 min with 500 ms integration time. Gametocytes treated

[2] = tested on: P. falciparum invasion of red blood cells; assay: Parasite invasion assay; assay type: cell-based, Plasmodium falciparum; conditions: 2.5 μM
Procedure: Invasion assays were performed as previously described ([17]). Invasion rates were calculated by subtracting the number of schizonts at the end of the assay (6 h postinvasion [hpi]) from the number of schizonts in the time zero (T0) sample, obtaining the number of merozoite-releasing schizonts. The number of new infections was normalized to the number of merozoite-releasing schizonts to obtain the parasitized erythrocyte multiplication rate (PEMR). This value was normalized to the control sample, obtaining the invasion rate value. The results are the means from three independent biological replicates, each performed in triplicate.

[3] = target: Rac1 (Homo sapiens, UniProt P63000); assay: Immunofluorescence assay with anti-Rac1/GTP on parasitophorous vacuole; assay type: cell-based; parameters: endogenous in cells; host or cells: erythrocytes from whole blood of 7 donors; conditions: 1.4 μM, 20 h
Procedure: We thus decided to investigate the Rac1 activation state in infected erythrocytes treated with EHop-016 and in the untreated control. To do this, we applied a methodology that allows us to specifically measure Rac1 activation levels on the parasitophorous vacuole. Freshly invaded erythrocytes were thus exposed to 1.4 μM EHop-016 treatment for 20 h and then smeared and analyzed by an immunofluorescence assay (IFA) with an antibody that specifically recognizes Rac1 in its active form (anti-Rac1/GTP). The resulting fluorescence signal was measured both in the EHop-016-treated sample and in the untreated control.
Cytotoxicity was evaluated on Human Microvascular Endothelial Cells (HMEC-1) maintained in MCDB-131 medium supplemented with 10% foetal calf serum (Euroclone), 20mM HEPES and 2 mM L-glutamine. […]
Immuno-fluorescence assay
Synchronous mature schizonts were purified by 60% Percoll gradient and allowed to invade fresh human RBCs for two hours. […] Negative controls without primary antibodies have been performed, resulting in complete absence of fluorescence s ignals. Anti-Rac1/GTP fluorescence signal was measured by using the software ImageJ (the parasitophorous vacuole area was delimited based on the anti-Exp1 signal). At least 40 cells were analyzed in each sample.

## CCn1c2ccccc2c2cc(Nc3ccnc(NCCCN4CCOCC4)n3)ccc21 [EHop-016]
[1]
  IC50: 740 ± 200 nM
[2]
  RBC invasion efficiency (invasion rate vs untreated control): did not reduce the RBC invasion efficiency
[3]
  anti-Rac1/GTP fluorescence intensity of parasitophorous vacuoles vs untreated control: significantly lower
